The values below come from patent publication US11046693B2, “Pyrido-phenanthroline derivatives, production and use thereof as medicaments” (Christian-Albrechts-Universitat Zu Kiel, priority 2016, dated 2021).

Counter-ions that a name gives are not always drawn.

Data set [1] has as its system 60 different human pathogenic tumor cell lines. Briefly: DTP NCI-60 in vitro human tumor cell line screening (SRB). The conditions noted are these: mean growth inhibition of all 60 tumor cell lines, two days exposure. The class given is cell-based. On the procedure:
For studying the pharmacological properties, the compounds of Examples 1 to 3 were tested under the “DTP NCI-60 in vitro human tumor cell line screening” of the National Cancer Institute (NCI), Bethesda, Md., United States. They were tested against 60 different human pathogenic tumor cell lines which originated from nine types of cancer (leukemia, non-small cell lung cancer, colon cancer, cancer of the CNS, melanoma, ovarian cancer, renal cancer, prostate cancer, breast cancer). To assess efficacy, the tumor cells were exposed to the compounds over two days, then growth inhibition was determined indirectly by determining the protein biomass with sulforhodamine B (SRB). Untreated cultures were used as reference. The mean-graph midpoint (MG_MIDGGI50) corresponds to a mean response rate of all tested human cell lines for the substance tested.

The next data set deals with HeLa cells. The data set is described as follows: PARP apoptosis assay (HeLa cells). Format: cell-based. As to conditions: after 8 h, FIG. 3. On the procedure:
(§1) In addition, exemplary compound 1 was tested for apoptotic activity. The enzyme PARP (poly-ADP ribose polymerase) can be used to determine the apoptotic status of a cell; the enzyme is cleaved into a 89 kDa fragment when the cell transitions into apoptosis and can therefore serve as a apoptosis marker ([…] S H et al, Cancer Research, 1993; 53:3976-3985). […] Etoposide was chosen as reference compound and tested as well.

The next data set has as its target human topoisomerase IIβ (Homo sapiens, UniProt Q02880). Briefly: Decatenation assay (kDNA). The class given is biochemical. The conditions noted are these: all three enzymes tested; read-out: IC50 topoisomerase IIβ.
Another data set has as its target T1, human topoisomerase I (Homo sapiens, UniProt P11387).
T1 sequence (P11387 1-765): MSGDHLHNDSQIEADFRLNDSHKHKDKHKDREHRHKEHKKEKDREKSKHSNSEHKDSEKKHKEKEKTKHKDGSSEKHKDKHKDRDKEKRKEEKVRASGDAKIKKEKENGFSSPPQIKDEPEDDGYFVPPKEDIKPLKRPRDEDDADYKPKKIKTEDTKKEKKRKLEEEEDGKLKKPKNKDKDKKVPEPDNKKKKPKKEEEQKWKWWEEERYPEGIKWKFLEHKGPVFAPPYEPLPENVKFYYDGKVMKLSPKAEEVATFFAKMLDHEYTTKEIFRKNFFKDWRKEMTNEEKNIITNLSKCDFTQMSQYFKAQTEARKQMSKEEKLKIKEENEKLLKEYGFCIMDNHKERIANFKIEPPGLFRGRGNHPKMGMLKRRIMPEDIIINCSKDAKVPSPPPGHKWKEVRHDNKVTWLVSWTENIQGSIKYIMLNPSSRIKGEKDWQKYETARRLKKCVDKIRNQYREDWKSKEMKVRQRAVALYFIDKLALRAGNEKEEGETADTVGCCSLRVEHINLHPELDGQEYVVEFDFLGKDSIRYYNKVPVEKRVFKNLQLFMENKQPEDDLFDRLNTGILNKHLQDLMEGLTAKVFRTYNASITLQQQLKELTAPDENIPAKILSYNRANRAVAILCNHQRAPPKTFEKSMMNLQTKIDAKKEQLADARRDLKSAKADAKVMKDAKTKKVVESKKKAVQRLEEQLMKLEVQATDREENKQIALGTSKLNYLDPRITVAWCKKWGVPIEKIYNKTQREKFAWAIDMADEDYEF
The data set is described as follows: Relaxation assay (supercoiled plasmid pUC18). The class given is biochemical.

Data set [2] in a line: Tolerability / MTD study, one-time intravenous application. The class given is in vivo, female athymic nude mice. On the procedure: The maximum tolerated dose (MTD) was determined as part of an in vivo study of tolerability of P8-D6 in female athymic nude mice.
A total of 18 female athymic nude mice at ages of 7 weeks (groups 1 and 2), 8 weeks (groups 3 and 4), and 9 weeks (groups 5 and 6) were involved in the in vivo study.
To determine the tolerability of P8-D6 for a one-time intravenous application into the tail vein, the study animals of groups 2, 4, and 6 (3 animals per group) were given P8-D6 at doses of 1 mg/kg body weight, 5 mg/kg body weight, and 10 mg/kg body weight on study days 0, 7, and 14, respectively. The control animals of groups 1, 3, and 5 (3 animals per group) were administered PBS (phosphate buffered saline) (pH 7.4) at a dose of 10 mL/kg body weight on the same respective days. The study animals were monitored in a period of up to 14 days for clinical signs, changes in behavior, and survival. The body weight was measured three times a week. The first measurement was on the application day. Criteria for early abortion of the study for ethical reasons were weight loss of more than 20% from the baseline weight. A necropsy was performed on study animals that died during the study and on all other study animals at the end of the study phase. Organ samples were taken from six study animals ([…], 1 animal from group 1, 1 animal from group 2, and one animal from group 6).

For data set [3], the system named is PARP (poly-ADP ribose polymerase) cleavage. The data set is described as follows: PARP assay comparing Example 1 and PZA (FIG. 4). Format: cell-based. On the procedure: as §1
Another PARP assay was performed to obtain a direct comparison of the pro-apoptotic effects of Example 1 (here: P8D 6) and the potent dual topoisomerase I/II inhibitor pyrazoloacridine (PZA) known from literature (FIG. 4).

Data set [4] in a line: Solubility pH 7.4 by HPLC analysis. The class given is physicochemical. As to conditions: aqueous buffer; pH 7.4, HPLC analysis.
The target of another data set is human topoisomerase IIα (Homo sapiens, UniProt P11388). Briefly: Decatenation assay (kDNA). Format: biochemical. As to conditions: for inhibition of topo IIα: 10 μM and 100 μM, FIG. 2 lanes 4 and 5.
The next data set is described as follows: logD by HPLC analysis. Format: physicochemical. The conditions noted are these: determined using HPLC analysis.
Data set [5] deals with mammary carcinoma, ovarian carcinoma, colon carcinoma, renal cell carcinoma, and non-small cell lung cancer. As to conditions: literature; cited from earlier work.
For data set [6] the following is noted: clinical phase I; cited from earlier work.
The subject of data set [7] is malignant melanoma, hepatocellular carcinoma, and mesothelioma. As to conditions: clinical study, with carboplatin; cited from earlier work.
Data set [8] has as its system pancreatic carcinoma, ovarian carcinoma, and prostate cancer. As to conditions: phase II study, at least some cases; cited from earlier work.
The test system of data set [9] is cancer in the head and neck, colon carcinoma, renal carcinoma, and non-small cell lung cancer. As to conditions: literature; cited from earlier work.
Data set [10] relates to malignant melanoma, cervical cancer, and cancer of the parotid gland. As to conditions: clinical phase I; cited from earlier work.
In data set [11] the test system is colon carcinoma and non-small cell lung cancer. As to conditions: in-vivo xenograft; cited from earlier work.

human topoisomerase IIα, sequence (P11388 whole entry): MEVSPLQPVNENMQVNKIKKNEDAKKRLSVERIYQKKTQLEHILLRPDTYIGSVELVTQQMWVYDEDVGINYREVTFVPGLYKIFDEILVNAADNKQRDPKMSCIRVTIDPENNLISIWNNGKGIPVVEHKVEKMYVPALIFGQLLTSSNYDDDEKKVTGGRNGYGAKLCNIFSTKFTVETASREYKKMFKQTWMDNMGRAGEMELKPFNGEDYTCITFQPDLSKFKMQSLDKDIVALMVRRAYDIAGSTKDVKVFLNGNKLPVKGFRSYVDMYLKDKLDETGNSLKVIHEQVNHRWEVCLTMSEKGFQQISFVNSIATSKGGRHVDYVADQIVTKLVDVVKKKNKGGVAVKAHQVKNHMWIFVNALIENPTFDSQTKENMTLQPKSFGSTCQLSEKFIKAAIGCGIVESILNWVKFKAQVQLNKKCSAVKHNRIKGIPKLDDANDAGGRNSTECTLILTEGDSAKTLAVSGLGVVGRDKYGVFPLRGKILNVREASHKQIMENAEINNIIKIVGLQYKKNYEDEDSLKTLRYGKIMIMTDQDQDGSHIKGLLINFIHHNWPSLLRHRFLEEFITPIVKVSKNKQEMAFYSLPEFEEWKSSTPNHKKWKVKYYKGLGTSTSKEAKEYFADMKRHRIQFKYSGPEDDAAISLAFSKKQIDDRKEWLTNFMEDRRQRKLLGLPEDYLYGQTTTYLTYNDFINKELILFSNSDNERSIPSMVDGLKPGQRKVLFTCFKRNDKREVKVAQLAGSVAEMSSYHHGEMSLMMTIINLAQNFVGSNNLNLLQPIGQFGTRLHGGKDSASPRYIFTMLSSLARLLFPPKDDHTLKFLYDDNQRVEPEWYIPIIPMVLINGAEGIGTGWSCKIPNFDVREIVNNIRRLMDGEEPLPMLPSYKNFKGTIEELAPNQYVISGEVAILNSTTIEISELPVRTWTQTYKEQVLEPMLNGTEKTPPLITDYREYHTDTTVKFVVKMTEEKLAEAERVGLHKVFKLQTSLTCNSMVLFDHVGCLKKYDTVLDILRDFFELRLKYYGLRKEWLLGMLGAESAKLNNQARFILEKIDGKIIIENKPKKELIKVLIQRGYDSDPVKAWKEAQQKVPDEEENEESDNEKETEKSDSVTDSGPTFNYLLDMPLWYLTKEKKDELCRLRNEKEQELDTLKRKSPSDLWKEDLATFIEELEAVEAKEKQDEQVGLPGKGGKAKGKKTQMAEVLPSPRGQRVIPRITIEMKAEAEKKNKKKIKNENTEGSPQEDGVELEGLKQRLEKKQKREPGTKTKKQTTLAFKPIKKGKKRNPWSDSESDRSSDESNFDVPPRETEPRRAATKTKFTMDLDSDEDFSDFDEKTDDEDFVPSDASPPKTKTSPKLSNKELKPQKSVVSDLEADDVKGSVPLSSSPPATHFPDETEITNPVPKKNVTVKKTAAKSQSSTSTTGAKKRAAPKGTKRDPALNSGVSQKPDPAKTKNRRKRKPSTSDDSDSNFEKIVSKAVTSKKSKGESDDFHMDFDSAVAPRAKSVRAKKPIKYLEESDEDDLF
human topoisomerase IIβ, sequence (Q02880 whole entry): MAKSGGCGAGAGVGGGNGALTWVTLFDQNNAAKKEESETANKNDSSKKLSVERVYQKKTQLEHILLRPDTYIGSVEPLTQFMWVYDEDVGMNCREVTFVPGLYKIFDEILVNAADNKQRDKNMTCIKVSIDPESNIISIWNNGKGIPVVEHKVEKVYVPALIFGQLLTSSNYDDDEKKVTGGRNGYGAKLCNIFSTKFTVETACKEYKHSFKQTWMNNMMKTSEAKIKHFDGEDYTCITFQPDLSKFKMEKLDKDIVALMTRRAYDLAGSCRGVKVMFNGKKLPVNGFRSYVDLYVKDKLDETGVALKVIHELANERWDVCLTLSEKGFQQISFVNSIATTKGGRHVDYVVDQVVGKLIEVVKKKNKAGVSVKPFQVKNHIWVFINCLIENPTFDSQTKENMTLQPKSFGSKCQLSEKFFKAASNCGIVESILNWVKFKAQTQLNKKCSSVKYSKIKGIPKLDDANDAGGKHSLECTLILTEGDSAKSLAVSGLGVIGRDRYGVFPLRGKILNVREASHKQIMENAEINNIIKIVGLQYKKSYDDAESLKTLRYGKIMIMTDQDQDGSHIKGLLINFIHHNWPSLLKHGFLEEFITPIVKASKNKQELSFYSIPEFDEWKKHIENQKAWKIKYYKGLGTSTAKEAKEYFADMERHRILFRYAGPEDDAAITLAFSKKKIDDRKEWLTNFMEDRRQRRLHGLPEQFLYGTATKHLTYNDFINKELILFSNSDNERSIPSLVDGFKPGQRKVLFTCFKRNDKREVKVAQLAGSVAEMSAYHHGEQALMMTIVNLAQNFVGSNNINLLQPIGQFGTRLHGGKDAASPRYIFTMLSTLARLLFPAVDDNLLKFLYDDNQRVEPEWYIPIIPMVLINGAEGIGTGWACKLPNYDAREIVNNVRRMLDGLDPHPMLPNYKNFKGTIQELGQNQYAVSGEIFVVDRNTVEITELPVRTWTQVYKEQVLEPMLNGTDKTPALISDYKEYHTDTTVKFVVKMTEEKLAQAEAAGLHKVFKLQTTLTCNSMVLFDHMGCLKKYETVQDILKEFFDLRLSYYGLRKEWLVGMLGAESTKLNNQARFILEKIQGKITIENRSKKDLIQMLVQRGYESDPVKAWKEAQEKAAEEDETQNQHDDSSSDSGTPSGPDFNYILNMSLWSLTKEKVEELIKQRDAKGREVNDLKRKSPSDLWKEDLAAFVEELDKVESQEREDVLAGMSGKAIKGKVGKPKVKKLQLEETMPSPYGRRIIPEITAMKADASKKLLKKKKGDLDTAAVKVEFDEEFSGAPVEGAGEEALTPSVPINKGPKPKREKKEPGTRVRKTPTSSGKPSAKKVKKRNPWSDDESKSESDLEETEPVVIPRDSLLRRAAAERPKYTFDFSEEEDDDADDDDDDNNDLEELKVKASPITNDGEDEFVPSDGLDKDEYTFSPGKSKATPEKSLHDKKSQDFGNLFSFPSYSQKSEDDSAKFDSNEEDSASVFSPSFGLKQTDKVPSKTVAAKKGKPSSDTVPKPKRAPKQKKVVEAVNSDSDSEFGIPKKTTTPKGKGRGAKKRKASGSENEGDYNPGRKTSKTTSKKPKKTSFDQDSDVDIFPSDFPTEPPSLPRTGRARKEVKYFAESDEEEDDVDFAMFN
Description for human topoisomerase IIα: (§2) A decatenation assay was used, which can be used to determine the inhibition of human topoisomerases II (α/β) by a substance. The protein is capable of decatenating kinetoplastid DNA (kDNA), which is present in the form of interlocked minicircles (so-called catenates), i.e. of cleaving it into individual minicircles.
Description for human topoisomerase IIβ: as §2

Consider `CC[C@@]1(O)C(=O)OCc2c1cc1n(c2=O)Cc2cc3ccccc3nc2-1` [Camptothecin, reference compound], for which, in data set [1] (Homo sapiens, 48 h), growth was halved (GI50) at 44 nM.

As for `COc1cc([C@@H]2c3cc4c(cc3[C@@H](O[C@@H]3O[C@@H]5CO[C@@H](C)O[C@H]5[C@H](O)[C@H]3O)[C@H]3COC(=O)[C@H]23)OCO4)cc(OC)c1O` [Etoposide, reference compound], the “concentration at which cleaved PARP (89 kDa band) is visible / apoptosis initiated” value in the data set with HeLa cells is more than 100 µM. In addition, halving of growth in data set [1] (Homo sapiens, 48 h) (GI50) required 990 nM.

As to `COc1cc(-c2cc3ccncc3c3nc(OCCN(C)C)c4cnccc4c23)cc(OC)c1OC` [Example 1, 6-(2-dimethylaminoethoxy)-11-(3,4,5-trimethoxyphenyl)pyrido[3,4-c][1,9]-phenanthroline Hydrochloride], the IC50 at human topoisomerase IIβ was less than 10000 nM; at human topoisomerase I (all three enzymes tested, read-out: IC50 topoisomerase I) it was less than 10000 nM; at human topoisomerase IIα (all three enzymes tested, read-out: IC50 topoisomerase IIα), less than 10000 nM. In the data set on HeLa cells, the “concentration at which cleaved PARP (89 kDa band) is visible / apoptosis initiated” value was found to be 1 µM. At human topoisomerase I (at 10 μM, FIG. 1), the “inhibition of topoisomerase I activity” value is recorded as “almost complete”. Moreover, in [2] (1 mg/kg body weight, female athymic nude mice), the tolerability entry is “good tolerability”. Besides, the “loss of body weight and apathy” value in data set [2] (5 mg/kg body weight, female athymic nude mice) is “reversible”. The “acute lethal side effects” value in data set [2] (1, 5 and 10 mg/kg body weight) was “None”. The “apoptotic effect in PARP assay” value in data set [3] (FIG. 4, direct comparison with PZA) is reported as “extraordinarily strong apoptotic effect”. The molecule further showed a solubility in data set [4] of 0.87 ± 0.03 mM. The molecule further had a GI50 in [1] (Homo sapiens, 48 h) of 49 nM. Further, the “inhibition of topo IIα” value is on record as “exemplary inhibition of topo IIα” against human topoisomerase IIα (Hydrochloride) and “potently inhibit topo IIα” against human topoisomerase IIα (listed as exemplary compound 1, Hydrochloride). Moreover, the chromatographic logD in “logD by HPLC analysis” turned out to be 3.7.

In [1] (Homo sapiens, 48 h), `COc1cc(-c2cc3ccncc3c3nc(OCCCN(C)C)c4cnccc4c23)cc(OC)c1OC` [Example 2, 6-(3-dimethylaminopropoxy)-11-(3,4,5-trimethoxyphenyl)pyrido[3,4-c][1,9]-phenanthroline] yielded a GI50 of 52 nM. Further, the chromatographic logD in the data set “logD by HPLC analysis” was found to be 3.6.

`CN(C)CCOc1nc2c(c3ccncc13)C(c1cccc(Cl)c1)Cc1ccncc1-2` (centres unmarked) [Example 3, 11-(3-chlorophenyl)-6-(2-dimethylaminoethoxy)-11,12-dihydropyrido[3,4-c]-[1,9]phenanthroline Hydrochloride] showed a solubility in data set [4] of 5.28 ± 0.09 mM. This molecule also displayed a GI50 in [1] (Homo sapiens, 48 h) of 447 nM. This molecule yielded a chromatographic logD in “logD by HPLC analysis” of 3.6.

Take `Cc1cnc(NCCCN(C)C)c2c1[nH]c1ccc3cc(O)ccc3c12` [Intoplicin]: the activity against carcinomas result in data set [5] was “high activity”. Besides, the concentration for 50% growth inhibition (GI50) in data set [1] stood at 530 nM. Also, in data set [6], the hepatotoxicity entry was “dose-limiting”.

In data set [1] (Homo sapiens, 48 h), `CCc1c2c(nc3ccc(OC(=O)N4CCC(N5CCCCC5)CC4)cc13)-c1cc3c(c(=O)n1C2)COC(=O)[C@]3(O)CC` [Irinotecan] displayed a GI50 of 160 nM. This lies in the sub-micromolar range.

With `COc1ccc2c(c1)-c1nn(CCCN(C)C)c3ccc([N+](=O)[O-])c(c13)N2` [PZA, pyrazoloacridine], the “concentration at which effective in PARP assay” value in [3] (FIG. 4) turned out to be 100 µM. In addition, the values for the clinical outcome in data set [7] and in data set [8] were “could not be cured but were stabilized over a few months” and “partial remission”, respectively. The 50% growth inhibitory concentration (GI50) in data set [1] (Homo sapiens, 48 h) was found to be 200 nM.

Take `CN(C)CCNc1nc2cc(O)ccc2c2c1C(=O)c1ccccc1-2` [TAS-103]: in data set [9], the efficacy in patients entry is on record as “sufficient to keep patients stable for a period of a few months, but a cure could not be achieved”.

`COc1cc([C@@H]2c3cc4c(cc3[C@@H](O[C@@H]3O[C@@H]5CO[C@@H](c6cccs6)O[C@H]5[C@H](O)[C@H]3O)[C@H]3COC(=O)[C@H]23)OCO4)cc(OC)c1O` [Teniposide] registered a GI50 in data set [1] (Homo sapiens, 48 h) of 390 nM. This lies in the sub-micromolar range.

On to `CC[C@@]1(O)C(=O)OCc2c1cc1n(c2=O)Cc2cc3c(CN(C)C)c(O)ccc3nc2-1` [Topotecan], for which the 50% growth inhibitory concentration (GI50) in data set [1] (Homo sapiens, 48 h) was 14 nM.

On to `COc1cccc2c1ccc1nc3cccc(C(=O)N[C@H](C)CN(C)C)c3nc12` [XR11576], for which, in data set [10], the clinical outcome is “stabilization, but no remission”. In addition, the activity in xenograft result in data set [11] was “high activity”.
